Tests used:
[1] = system: platelets in platelet rich plasma (PRP), aggregation induced by ADP; test: Effect on Platelet Aggregation Induced by Adenosine Diphosphate (ADP); format: cell-based; conditions: dose required for complete inhibition of platelet aggregation; human PRP 3×10^8 platelets/ml, ADP final 2.5 μM, 37° C., aggregometer
Description: Test 1: Effect on Platelet Aggregation Induced by Adenosine Diphosphate (ADP)
Platelet rich plasma (PRP) which contains 3×10^8 platelets/ml was prepared from human blood. To the 225 μl of PRP, 25 μl of drug solution* was added, and then stirred for 2 minutes at 37° C. To the solution 5 μl of ADP (final 2.5 μM) was added as an aggregation inducer. Aggregation was measured by using an aggregometer (NBS HEMA-TRACER 801). Activity of inhibitor (test compound) was expressed as IC100 value i.e. dose required for complete inhibition of platelet aggregation.
Drug solution* — — — Test compound was dissolved in water.

Structure (SMILES)	melting point [°C]	IC100 [1] [nM]
C[C@H](CC(=O)O)NC(=O)[C@@H]1CCCN(C(=O)CCC2CCNCC2)C1.Cl	105 to 108	–
COc1ccc(CCNC(=O)[C@H](CC(=O)O)NC(=O)[C@@H]2CCCN(C(=O)CCC3CCNCC3)C2)cc1.Cl	82	–
Cl.O=C(O)CC(NC(=O)[C@@H]1CCCN(C(=O)CCC2CCNCC2)C1)c1ccccc1 (some centres unmarked)	67	–
CCCCCC(=O)N[C@@H](CNC(=O)[C@@H]1CCCN(C(=O)CCC2CCNCC2)C1)C(=O)O.Cl	156 to 157	–
Cl.O=C(O)CCNC(=O)C1CCCN(C(=O)CCC2CCNCC2)C1 (centres unmarked)	70 to 72	–
Cl.O=C(O)CCNC(=O)C1CCN(C(=O)CCC2CCNCC2)CC1	63 to 65	–
Cl.O=C(O)CCNC(=O)CC1CCCN(C(=O)CC2CCNCC2)C1 (centres unmarked)	73	–
Cl.O=C(O)CCNC(=O)CC1CCCN(C(=O)C=C2CCNCC2)C1 (centres unmarked)	63	–
C#C[C@H](CC(=O)OCc1oc(=O)oc1C)NC(=O)[C@@H]1CCCN(C(=O)CCC2CCNCC2)C1.Cl	70	–
COC(=O)CCNC(=O)C1CCN(C(=O)CCC2CCN(C(=O)OC(C)(C)C)CC2)CC1	79	–
COC(=O)CCNC(=O)CC1CCCN(C(=O)C=C2CCN(C(=O)OC(C)(C)C)CC2)C1 (centres unmarked)	121	–
COC(=O)C[C@H](N)C(=O)NC1CCCN(C(=O)CCC2CCN(C(=O)OCc3ccccc3)CC2)C1.Cl (some centres unmarked)	75	–
Cl.O=C(O)CCNC(=O)[C@@H]1CCCN(C(=O)CCC2CCNCC2)C1 [Example 21 (3), N-[(R)-1-{3-(4-piperidyl)propionyl}-3-piperidylcarbonyl]-β-alanine hydrochloride]	84	1000
